From ChEMBL document CHEMBL4665783, “N-terminal modified cyclopeptidic mimetics of Apollo as inhibitors of TRF2” (Bioorg Med Chem Lett, 2020) come the findings set out here.

Broadly, the Ki is the equilibrium dissociation constant of an inhibitor or competing ligand from its target. Read a high Ki as weaker binding. The Kd is the free concentration of one partner at which half of the binding sites on the other are occupied at equilibrium, for simple one-to-one binding.

Experiment [1] deals with T1, Telomeric repeat-binding factor 2 (Homo sapiens, UniProt Q15554).
T1 sequence (Q15554 whole entry): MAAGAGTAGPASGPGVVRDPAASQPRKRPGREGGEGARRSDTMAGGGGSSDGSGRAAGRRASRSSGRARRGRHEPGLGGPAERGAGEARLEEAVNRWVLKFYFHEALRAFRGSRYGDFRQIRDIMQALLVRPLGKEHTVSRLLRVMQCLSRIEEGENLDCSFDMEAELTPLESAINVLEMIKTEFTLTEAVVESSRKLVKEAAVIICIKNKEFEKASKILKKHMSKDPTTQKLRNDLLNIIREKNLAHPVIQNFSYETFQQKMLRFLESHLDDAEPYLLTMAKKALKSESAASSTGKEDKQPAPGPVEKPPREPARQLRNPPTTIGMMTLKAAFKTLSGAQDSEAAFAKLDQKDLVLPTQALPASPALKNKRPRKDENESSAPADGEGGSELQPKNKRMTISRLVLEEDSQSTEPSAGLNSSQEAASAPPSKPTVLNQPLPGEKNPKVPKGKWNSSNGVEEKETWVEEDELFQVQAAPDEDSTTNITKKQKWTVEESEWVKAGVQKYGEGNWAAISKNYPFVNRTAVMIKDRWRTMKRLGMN
The experiment in a line: Binding affinity to TRFH domain of TRF2 (residues 42 to 245) (unknown origin) by FP based assay.

Experiment [2] has as its target T1, Telomeric repeat-binding factor 2. The experiment in a line: Binding affinity to biotinylated TRF2 (unknown origin) by biolayer interferometry assay. (In general: In BLI a coated tip is dipped into the sample, and binding shifts an interference pattern.)

In turn, `CC(C)C[C@@H]1NC(=O)[C@@H](NC(=O)c2cc(OCc3ccccc3)cc(OC(C)C)c2)COCCCCOC[C@@H](C(=O)N(C)C)NC(=O)[C@@H]2CCCN2C(=O)[C@H](C)NC1=O` showed a Ki in experiment [1] of 11 µM.
The same measure, in the same setting: with `CC(C)C[C@@H]1NC(=O)[C@@H](NC(=O)c2cc(OCc3ccccc3)cc(OCC3CCCC3)c2)COCCCCOC[C@@H](C(=O)N(C)C)NC(=O)[C@@H]2CCCN2C(=O)[C@H](C)NC1=O` the figure was 6.9 µM.
`CC(C)C[C@@H]1NC(=O)[C@@H](NC(=O)c2cc(OCc3ccccc3)cc(OCC3CC3)c2)COCCCCOC[C@@H](C(=O)N(C)C)NC(=O)[C@@H]2CCCN2C(=O)[C@H](C)NC1=O`: the Ki in experiment [1] was found to be 4.2 µM. In experiment [2], this compound came in with an equilibrium dissociation constant (Kd) of 2.5 µM.
As to `CC(C)C[C@@H]1NC(=O)[C@@H](NC(=O)c2cc(OCc3ccccc3)cc(OC3CCCC3)c2)COCCCCOC[C@@H](C(=O)N(C)C)NC(=O)[C@@H]2CCCN2C(=O)[C@H](C)NC1=O`, affinity in experiment [1] was put at a Ki of 5.1 µM.
In turn, `CC(C)C[C@@H]1NC(=O)[C@@H](NC(=O)c2cc(OCCN)cc(OCc3ccccc3)c2)COCCCCOC[C@@H](C(=O)N(C)C)NC(=O)[C@@H]2CCCN2C(=O)[C@H](C)NC1=O` registered a Ki in experiment [1] of 35 µM.
In experiment [1], `CC(C)C[C@@H]1NC(=O)[C@@H](NC(=O)c2cc(OCc3ccccc3)cc(OC3CCC3)c2)COCCCCOC[C@@H](C(=O)N(C)C)NC(=O)[C@@H]2CCCN2C(=O)[C@H](C)NC1=O` had a Ki of 4.9 µM.
Regarding `CC(C)C[C@@H]1NC(=O)[C@@H](NC(=O)c2cc(OCc3ccccc3)cc(OCC3CCC3)c2)COCCCCOC[C@@H](C(=O)N(C)C)NC(=O)[C@@H]2CCCN2C(=O)[C@H](C)NC1=O`, affinity in experiment [1] was put at a Ki of 4.3 µM.
Take Ac-LALKYLLTPV-NH2: the affinity in experiment [1], expressed as Ki, was 0.33 µM.
